*1 amine or outer side, *2 acyl side, *3 side chain or, on linkers, in order; H or OH if unused. Where a SMILES comes first, the peptide text is derived from it. Side-chain parts run from the residue outwards. [ ]: non-standard residue; d: D form. The star is where a group is joined. Isobutyryl(2-(3-CN-5-F-Ph)) = CC(C)(C(=O)*)c1cc(F)cc(C#N)c1; C20 diacid = O=C(O)CCCCCCCCCCCCCCCCCCC(=O)*; αMePhe(2-F) = C[C@](N)(Cc1ccccc1F)C(=O)O; γGlu = O=C(O)[C@H](CCC(=O)[*:2])N[*:1]; X58 = Cc1cc(F)cc(C(C)(C)C(=O)*)c1; αMeL = CC(C)C[C@](C)(N)C(=O)O; Orn = NCCC[C@H](N)C(=O)O; AEEA = NCCOCCOCC(=O)O; Aib = CC(C)(N)C(=O)O; βAla = NCCC(=O)O
Columns and labels:
Assay type in all cases: cell-based
[1] = target: T1, GLP-1 receptor (Homo sapiens, UniProt P43220); assay: PathHunter β-arrestin assay, GLP-1 receptor; set-up: host or cells: PathHunter CHO-K1 GLP1R β-Arrestin Cell Line
T1 sequence (P43220 24-463): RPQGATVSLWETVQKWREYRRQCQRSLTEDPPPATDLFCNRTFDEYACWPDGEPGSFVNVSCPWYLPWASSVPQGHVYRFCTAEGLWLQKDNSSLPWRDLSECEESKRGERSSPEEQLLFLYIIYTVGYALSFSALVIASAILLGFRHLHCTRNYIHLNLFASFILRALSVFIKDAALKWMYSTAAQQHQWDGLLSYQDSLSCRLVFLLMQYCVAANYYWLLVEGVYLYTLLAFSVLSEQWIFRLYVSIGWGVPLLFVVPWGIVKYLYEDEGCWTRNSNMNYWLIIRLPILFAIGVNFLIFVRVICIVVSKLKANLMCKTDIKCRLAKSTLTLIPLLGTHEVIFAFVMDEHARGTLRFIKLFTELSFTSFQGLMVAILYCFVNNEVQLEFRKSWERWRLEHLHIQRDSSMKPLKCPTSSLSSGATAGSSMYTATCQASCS

[2] = target: T2, GIP receptor (Homo sapiens, UniProt P48546); assay: HitHunter cAMP assay, GIP receptor; conditions: for Emax: CHO cells, cAMP, normalized to maximum signal from GIP (high) and DMSO (low), read-out: Emax GIP-1R
T2 sequence (P48546 22-466): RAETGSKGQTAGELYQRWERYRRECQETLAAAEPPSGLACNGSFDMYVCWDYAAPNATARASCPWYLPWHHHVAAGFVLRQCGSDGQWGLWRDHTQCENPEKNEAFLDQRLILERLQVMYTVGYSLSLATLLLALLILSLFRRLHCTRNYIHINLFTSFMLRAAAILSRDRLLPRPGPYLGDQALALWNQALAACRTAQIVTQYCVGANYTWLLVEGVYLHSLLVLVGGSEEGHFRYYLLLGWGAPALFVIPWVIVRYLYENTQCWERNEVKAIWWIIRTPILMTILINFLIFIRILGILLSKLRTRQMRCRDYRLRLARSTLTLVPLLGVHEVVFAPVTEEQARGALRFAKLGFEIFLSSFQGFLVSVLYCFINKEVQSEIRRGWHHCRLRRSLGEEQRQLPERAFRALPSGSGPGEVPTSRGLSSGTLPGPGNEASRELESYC

[3] = target: T1, GLP-1 receptor; assay: HitHunter cAMP assay, GLP-1 receptor; conditions: for Emax: CHO cells, cAMP, normalized to maximum signal from GLP-1 (high) and DMSO (low), read-out: Emax GLP-1R
[4] = target: T2, GIP receptor; assay: PathHunter β-arrestin assay, GIP receptor; set-up: host or cells: PathHunter CHO-K1 GIPR β-Arrestin Cell Line
[5] = β-arrestin-2 recruitment, PathHunter CHO-K1 GLP1R β-Arrestin Cell Line, 90 min at 37° C., normalized to GLP-1, read-out: GLP-1R β Arrestin EC50
[6] = CHO cells stably expressing GIP receptor, cAMP accumulation, 30 min, read-out: EC50 GIP-1R
[7] = CHO cells stably expressing human GLP-1 receptor, cAMP accumulation, 30 min, read-out: EC50 GLP-1R
[8] = β-arrestin-2 recruitment, PathHunter CHO-K1 GIPR β-Arrestin Cell Line, 90 min at 37° C., normalized to GIP, read-out: GIPR β Arrestin EC50

Row | Compound | EC50 [1, 5] [nM] | EC50 [2, 6] [nM] | Emax [2] [%] | EC50 [3, 7] [nM] | Emax [3] [%] | EC50 [4, 8] [nM] | EC50 [1] [nM] | EC50 [2] [nM] | EC50 [3] [nM] | EC50 [4] [nM]
1 | CC[C@H](C)[C@H](NC(=O)[C@H](CC(C)C)NC(=O)[C@H](Cc1ccc(O)cc1)NC(=O)[C@@H](CCC(=O)O)NC(=O)[C@@H](NC(=O)[C@H](Cc1ccccc1)NC(=O)[C@H](CCC(=O)O)NC(=O)C(C)(C)NC(=O)[C@H](CCC(N)=O)NC(=O)[C@H](C)NC(=O)[C@H](CCCCNC(=O)COCCOCCNC(=O)COCCOCCNC(=O)CC[C@H](NC(=O)CCCCCCCCCCCCCCCCCCC(=O)O)C(=O)O)NC(=O)[C@H](CCCN)NC(=O)[C@H](CC(=O)O)NC(=O)[C@H](CC(C)C)NC(=O)[C@](C)(CC(C)C)NC(=O)[C@@H](NC(=O)[C@H](CO)NC(=O)[C@H](Cc1ccc(O)cc1)NC(=O)[C@H](CC(=O)O)NC(=O)[C@H](CO)NC(=O)[C@@H](NC(=O)[C@](C)(Cc1ccccc1F)NC(=O)[C@@H](NC(=O)CNC(=O)[C@H](CCC(=O)O)NC(=O)CCNC(=O)C(C)(C)c1cc(F)cc(C#N)c1)[C@@H](C)O)[C@@H](C)O)[C@@H](C)CC)[C@@H](C)CC)C(=O)N[C@@H](CCC(=O)O)C(=O)NCC(=O)NCC(=O)N1CCC[C@H]1C(=O)N[C@@H](CO)C(=O)N[C@@H](CO)C(=O)NCC(=O)N[C@@H](C)C(=O)N1CCC[C@H]1C(=O)N1CCC[C@H]1C(=O)N1CCC[C@H]1C(=O)N[C@@H](CO)C(N)=O [Compound 140] ({Isobutyryl(2-(3-CN-5-F-Ph))-βAla}-EGT[αMePhe(2-F)]TSDYSI[αMeL]LD[Orn]K([AEEA-AEEA-γGlu-C20 diacid])AQ[Aib]EFI[dE]YLIEGGPSSGAPPPS-NH2) | > 1000 | < 0.1 | 108 | < 0.1 | 104 | < 1000 |  |  |  | 
2 | CC[C@H](C)[C@H](NC(=O)[C@H](CO)NC(=O)[C@H](Cc1ccc(O)cc1)NC(=O)[C@H](CC(=O)O)NC(=O)[C@H](CO)NC(=O)[C@@H](NC(=O)[C@](C)(Cc1ccccc1F)NC(=O)[C@@H](NC(=O)CNC(=O)[C@H](CCC(=O)O)NC(=O)CCNC(=O)C1(c2ccc(Cl)cc2)CCCC1)[C@@H](C)O)[C@@H](C)O)C(=O)N[C@@H](Cc1ccc(O)cc1)C(=O)N[C@@H](CC(C)C)C(=O)N[C@@H](CC(=O)O)C(=O)N[C@@H](CCCCN)C(=O)N[C@@H](CCC(N)=O)C(=O)N[C@@H](C)C(=O)N[C@@H](C)C(=O)NC(C)(C)C(=O)N[C@@H](CCC(=O)O)C(=O)N[C@@H](Cc1ccccc1)C(=O)N[C@H](C(=O)N[C@@H](CC(N)=O)C(=O)N[C@@H](Cc1c[nH]c2ccccc12)C(=O)N[C@@H](CC(C)C)C(=O)N[C@@H](CC(C)C)C(=O)N[C@@H](C)C(=O)NCC(=O)NCC(=O)N1CCC[C@H]1C(=O)N[C@@H](CO)C(=O)N[C@@H](CO)C(=O)NCC(=O)N[C@@H](C)C(=O)N1CCC[C@H]1C(=O)N1CCC[C@H]1C(=O)N1CCC[C@H]1C(=O)N[C@@H](CO)C(=O)N[C@@H](CCCCNC(=O)COCCOCCNC(=O)COCCOCCNC(=O)CC[C@H](NC(=O)CCCCCCCCCCCCCCCCCCC(=O)O)C(=O)O)C(N)=O)C(C)C [Compound 141] | > 1000 | 0.1 to 1 | 108 | 0.1 to 1 | 97 | < 1000 |  |  |  | 
3 | CC[C@H](C)[C@H](NC(=O)[C@H](CO)NC(=O)[C@H](Cc1ccc(O)cc1)NC(=O)[C@H](CC(=O)O)NC(=O)[C@H](CO)NC(=O)[C@@H](NC(=O)[C@](C)(Cc1ccccc1F)NC(=O)[C@@H](NC(=O)CNC(=O)[C@H](CCC(=O)O)NC(=O)CCNC(=O)C1(c2ccccc2)CNC(=O)C1)[C@@H](C)O)[C@@H](C)O)C(=O)N[C@@H](Cc1ccc(O)cc1)C(=O)N[C@@H](CC(C)C)C(=O)N[C@@H](CC(=O)O)C(=O)N[C@@H](CCCCN)C(=O)N[C@@H](CCC(N)=O)C(=O)N[C@@H](C)C(=O)N[C@@H](C)C(=O)NC(C)(C)C(=O)N[C@@H](CCC(=O)O)C(=O)N[C@@H](Cc1ccccc1)C(=O)N[C@H](C(=O)N[C@@H](CC(N)=O)C(=O)N[C@@H](Cc1c[nH]c2ccccc12)C(=O)N[C@@H](CC(C)C)C(=O)N[C@@H](CC(C)C)C(=O)N[C@@H](C)C(=O)NCC(=O)NCC(=O)N1CCC[C@H]1C(=O)N[C@@H](CO)C(=O)N[C@@H](CO)C(=O)NCC(=O)N[C@@H](C)C(=O)N1CCC[C@H]1C(=O)N1CCC[C@H]1C(=O)N1CCC[C@H]1C(=O)N[C@@H](CO)C(=O)N[C@@H](CCCCNC(=O)COCCOCCNC(=O)COCCOCCNC(=O)CC[C@H](NC(=O)CCCCCCCCCCCCCCCCCCC(=O)O)C(=O)O)C(N)=O)C(C)C (stereo partly drawn) [Compound 142] | < 1000 | < 0.1 | 99 | 0.1 to 1 | 99 | < 1000 |  |  |  | 
4 | CC[C@H](C)[C@H](NC(=O)[C@H](CO)NC(=O)[C@H](CCCCNC(=O)COCCOCCNC(=O)COCCOCCNC(=O)CC[C@H](NC(=O)CCCCCCCCCCCCCCCCCCC(=O)O)C(=O)O)NC(=O)[C@H](CC(=O)O)NC(=O)[C@H](CO)NC(=O)[C@@H](NC(=O)[C@H](Cc1ccccc1)NC(=O)[C@@H](NC(=O)CNC(=O)[C@H](CCC(=O)O)NC(=O)CCNC(=O)C(C)(C)c1cccc(C#N)c1)[C@@H](C)O)[C@@H](C)O)C(=O)N[C@@H](Cc1ccc(O)cc1)C(=O)N[C@@H](CC(C)C)C(=O)N[C@@H](CC(=O)O)C(=O)N[C@@H](CCCCN)C(=O)N[C@@H](CCC(N)=O)C(=O)N[C@@H](C)C(=O)N[C@@H](C)C(=O)NC(C)(C)C(=O)N[C@@H](CCC(=O)O)C(=O)N[C@@H](Cc1ccccc1)C(=O)N[C@H](C(=O)N[C@@H](CC(N)=O)C(=O)N[C@@H](Cc1c[nH]c2ccccc12)C(=O)N[C@@H](CC(C)C)C(=O)N[C@@H](CC(C)C)C(=O)N[C@@H](C)C(=O)NCC(=O)NCC(=O)N1CCC[C@H]1C(=O)N[C@@H](CO)C(=O)N[C@@H](CO)C(=O)NCC(=O)N[C@@H](C)C(=O)N1CCC[C@H]1C(=O)N1CCC[C@H]1C(=O)N1CCC[C@H]1C(=O)N[C@@H](CO)C(N)=O)C(C)C [Compound 143] |  |  | 100 |  | 101 |  | < 1000 | 10 to 100 | < 0.1 | > 1000
5 | CC[C@H](C)[C@H](NC(=O)[C@H](CC(C)C)NC(=O)[C@H](Cc1c[nH]c2ccccc12)NC(=O)[C@H](CCC(N)=O)NC(=O)[C@@H](NC(=O)[C@H](Cc1ccccc1)NC(=O)[C@H](C)NC(=O)[C@H](CCCCNC(=O)COCCOCCNC(=O)COCCOCCNC(=O)CC[C@H](NC(=O)CCCCCCCCCCCCCCCCCCC(=O)O)C(=O)O)NC(=O)[C@H](CCC(N)=O)NC(=O)[C@H](C)NC(=O)[C@@H](NC(=O)[C@H](CCCCN)NC(=O)[C@H](CC(=O)O)NC(=O)[C@H](CC(C)C)NC(=O)C(C)(C)NC(=O)[C@@H](NC(=O)[C@H](CO)NC(=O)[C@H](Cc1ccc(O)cc1)NC(=O)[C@H](CC(=O)O)NC(=O)[C@H](CO)NC(=O)[C@@H](NC(=O)[C@H](Cc1ccccc1)NC(=O)[C@@H](NC(=O)CNC(=O)[C@H](CCC(=O)O)NC(=O)CCNC(=O)C(C)(C)c1cc(C)cc(F)c1)[C@@H](C)O)[C@@H](C)O)[C@@H](C)CC)[C@@H](C)CC)C(C)C)C(=O)N[C@@H](C)C(=O)NCC(=O)NCC(=O)N1CCC[C@H]1C(=O)N[C@@H](CO)C(=O)N[C@@H](CO)C(=O)NCC(=O)N[C@@H](C)C(=O)N1CCC[C@H]1C(=O)N1CCC[C@H]1C(=O)N1CCC[C@H]1C(=O)N[C@@H](CO)C(N)=O [Compound 144] ({X58-βAla}-EGTFTSDYSI[Aib]LDKIAQK([AEEA-AEEA-γGlu-C20 diacid])AFVQWLIAGGPSSGAPPPS-NH2) | > 1000 | 1 to 10 | 103 | < 0.1 | 99 | > 1000 |  |  |  | 
6 | CC[C@H](C)[C@H](NC(=O)[C@H](CO)NC(=O)[C@H](Cc1ccc(O)cc1)NC(=O)[C@H](CC(=O)O)NC(=O)[C@H](CO)NC(=O)[C@@H](NC(=O)[C@H](Cc1ccccc1)NC(=O)[C@@H](NC(=O)CNC(=O)[C@H](CCC(=O)O)NC(=O)CCNC(=O)C1(c2ccc(F)cc2F)CCCC1)[C@@H](C)O)[C@@H](C)O)C(=O)N[C@@H](Cc1ccc(O)cc1)C(=O)N[C@@H](CC(C)C)C(=O)N[C@@H](CC(=O)O)C(=O)N[C@@H](CCCCN)C(=O)N[C@@H](CCC(N)=O)C(=O)N[C@@H](C)C(=O)N[C@@H](C)C(=O)NC(C)(C)C(=O)N[C@@H](CCC(=O)O)C(=O)N[C@@H](Cc1ccccc1)C(=O)N[C@H](C(=O)N[C@@H](CC(N)=O)C(=O)N[C@@H](Cc1c[nH]c2ccccc12)C(=O)N[C@@H](CC(C)C)C(=O)N[C@@H](CC(C)C)C(=O)N[C@@H](C)C(=O)NCC(=O)NCC(=O)N1CCC[C@H]1C(=O)N[C@@H](CO)C(=O)N[C@@H](CO)C(=O)NCC(=O)N[C@@H](C)C(=O)N1CCC[C@H]1C(=O)N1CCC[C@H]1C(=O)N1CCC[C@H]1C(=O)N[C@@H](CO)C(=O)N[C@@H](CCCCNC(=O)COCCOCCNC(=O)COCCOCCNC(=O)CC[C@H](NC(=O)CCCCCCCCCCCCCCCCCCC(=O)O)C(=O)O)C(N)=O)C(C)C [Compound 145] | > 1000 | 1 to 10 | 102 | 1 to 10 | 97 | > 1000 |  |  |  | 
